These results are taken from ChEMBL document CHEMBL1201862, “PubChem BioAssay data set” (2004).

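Results reflect a 48-hour exposure of cells in 96-well plates to compound at five concentrations. At the GI50, growth is halved.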 Activity calls are given as the source filed them. No stated cut-off is given here; in the data, active = GI50 up to about 1.1 µM and inactive = higher. Where only a bound is given, the exact number is not on record here.

Some test systems named below: OVCAR-5; HOP-92; CAKI-1; NCI-H460; Malme-3M; MOLT-4; 786-0; HL-60; CCRF-CEM; EKVX; SF-539; HCT-15; OVCAR-4; KM12; RXF 393; SK-OV-3; COLO 205; MDA-N; OVCAR-3; NCI-H226.
Common to all, as to experiment: NCI anticancer screen, dose series, 48 h

For `C=C(C)C(=O)O[C@@H]1C/C(C)=C\[C@H](OC(C)=O)C[C@](C)(O)/C=C2/OC(=O)C(COC(C)=O)=C21`, the GI50 was 1.99 µM (inactive) in the experiment on OVCAR-5; 0.437 µM (active) in the experiment with HOP-92; 0.329 µM (active) with CAKI-1; 0.695 µM (active) with NCI-H460; 0.274 µM (active) in the experiment with Malme-3M; 0.428 µM (active) in the experiment on MOLT-4. Besides, the GI50 is 1.09 µM (active) in the experiment on 786-0; 0.013 µM (active) in the experiment on HL-60; 0.0649 µM (active) with CCRF-CEM; 0.962 µM (active) in the experiment on EKVX; 1.28 µM (inactive) in the experiment on SF-539; 0.212 µM in the experiment with HCT-15. Also, the GI50 was 1.93 µM (inactive) in the experiment with OVCAR-4; 6.32 µM (inactive) with KM12; 0.304 µM (active) in the experiment on RXF 393; 6.12 µM (inactive) in the experiment with SK-OV-3; 0.238 µM (active) with COLO 205; 0.467 µM (active) in the experiment on MDA-N. In addition, the GI50 is 0.726 µM (active) in the experiment with OVCAR-3 and 1.91 µM (inactive) in the experiment on NCI-H226.
Turning to `Cc1c2ccc3ccccc3c2c[n+]2ccccc12`, the GI50 in the experiment with OVCAR-5 was 61.9 µM (inactive); in the experiment on HOP-92, 13.5 µM (inactive); with CAKI-1 it was 53.6 µM (inactive); in the experiment with NCI-H460, 10.7 µM (inactive); in the experiment on Malme-3M, 1.56 µM (inactive); with MOLT-4, 4.66 µM (inactive). Also, the GI50 in the experiment on 786-0 is 2.37 µM (inactive); in the experiment on HL-60, 33.4 µM (inactive); in the experiment with CCRF-CEM, 6.59 µM (inactive); with EKVX it was 4.91 µM (inactive); in the experiment with SF-539, 8.41 µM (inactive); in the experiment with HCT-15, 59.2 µM. Further, the GI50 in the experiment on OVCAR-4 is 12 µM (inactive); with KM12, 1.13 µM (inactive); with RXF 393, 22.3 µM (inactive); with SK-OV-3, 16.9 µM (inactive); with COLO 205 it was 2.82 µM (inactive); in the experiment with MDA-N, 6.71 µM (inactive). In addition, the GI50 in the experiment with OVCAR-3 was 5.85 µM (inactive); in the experiment on NCI-H226, 4.67 µM (inactive).
`CCOC(=O)CCC(C(=O)OCC)n1nnc2ccc(Nc3c(C)[n+]([O-])c4cc(F)c(OCC)cc4[n+]3[O-])cc21` (stereo not given): the GI50 in the experiment with OVCAR-5 is > 100 µM (inactive); with HOP-92, 24.6 µM (inactive); in the experiment with CAKI-1, 66.1 µM (inactive); with NCI-H460 it was 60.3 µM (inactive); with Malme-3M, 35.6 µM (inactive); with MOLT-4, 44.7 µM (inactive). Besides, the GI50 in the experiment with 786-0 is > 100 µM (inactive); with HL-60 it was 36.8 µM (inactive); with CCRF-CEM it was 40 µM (inactive); in the experiment on EKVX it was 44.7 µM (inactive); with SF-539, 24.8 µM (inactive); with HCT-15, 52.8 µM. Also, the GI50 with OVCAR-4 is 36.4 µM (inactive); in the experiment with KM12, 80.4 µM (inactive); in the experiment with RXF 393, 41.8 µM (inactive); with SK-OV-3, > 100 µM (inactive); with COLO 205, 28.2 µM (inactive); in the experiment with MDA-N, 46.3 µM (inactive). Moreover, the values for the GI50 in the experiment with OVCAR-3 and in the experiment on NCI-H226 were 25.4 µM (inactive) and 48.5 µM (inactive), respectively.
As to `O=C(N/C=C1\C(=O)Oc2ccccc2C1=O)Oc1ccccc1`, the GI50 with OVCAR-5 is 46.1 µM (inactive); in the experiment with HOP-92, 22.1 µM (inactive); in the experiment on CAKI-1, 21.6 µM (inactive); in the experiment with NCI-H460, 33.9 µM (inactive); in the experiment on Malme-3M, 19.1 µM (inactive); in the experiment on MOLT-4, 24.9 µM (inactive). Besides, the GI50 was 23.7 µM (inactive) with 786-0; 29.9 µM (inactive) in the experiment on HL-60; 25 µM (inactive) with CCRF-CEM; 27.7 µM (inactive) with EKVX; 16 µM (inactive) in the experiment on SF-539; 23.7 µM with HCT-15. Also, the GI50 is 22.5 µM (inactive) in the experiment with OVCAR-4; 35.6 µM (inactive) in the experiment with KM12; 8.59 µM (inactive) in the experiment with RXF 393; 6.27 µM (inactive) in the experiment with SK-OV-3; 41.4 µM (inactive) with COLO 205; 18.1 µM (inactive) in the experiment with MDA-N. Besides, the values for the GI50 in the experiment with OVCAR-3 and in the experiment with NCI-H226 were 17 µM (inactive) and 14.4 µM (inactive), respectively.
In the case of `COC1/C=C/C(C)C(C(C)C(OC)C(C)CCC(=O)C(C)C(C/C=C/N(C)C=O)OC)OC(=O)/C=C/C=C(\C)CC(OC)C(OC)C2=CC(=O)O[C@@H](C(C)C(OC)CC(OC)/C=C/C(C)C(O)C1)[C@H]2O` (stereo not given in full), the GI50 is 0.163 µM (active) with OVCAR-5; 0.0284 µM (active) with HOP-92; 0.0508 µM (active) in the experiment with CAKI-1; 0.0759 µM (active) in the experiment on NCI-H460; 0.148 µM (active) in the experiment with Malme-3M; 0.105 µM (active) in the experiment with MOLT-4. The GI50 in the experiment with 786-0 is 0.147 µM (active); with HL-60, 0.0964 µM (active); in the experiment on CCRF-CEM, 0.039 µM (active); in the experiment on EKVX it was 0.154 µM (active); with SF-539, 0.128 µM (active); with HCT-15, 0.0479 µM. Also, the GI50 in the experiment on OVCAR-4 was 0.121 µM (active); with KM12 it was 0.164 µM (active); with RXF 393, 0.121 µM (active); with SK-OV-3, 0.122 µM (active); with COLO 205, 0.0721 µM (active); in the experiment on MDA-N, 0.208 µM (active). In addition, the GI50 is 0.0681 µM (active) in the experiment on OVCAR-3 and 0.06 µM (active) with NCI-H226.
On to `c1ccc2c3ccn4ccc5c6ccccc6[nH]c5c4c-3nc2c1`, for which the GI50 in the experiment on OVCAR-5 is 1.57 µM (inactive); in the experiment on HOP-92 it was 1.43 µM (inactive); in the experiment on CAKI-1 it was 1.42 µM (inactive); with NCI-H460 it was 0.498 µM (active); with Malme-3M, 1.65 µM (inactive); in the experiment on MOLT-4, 1.42 µM (inactive). Moreover, the GI50 in the experiment with 786-0 is 0.163 µM (active); in the experiment with HL-60 it was 0.935 µM (active); in the experiment with CCRF-CEM, 0.31 µM (active); in the experiment with EKVX, 1.02 µM (active); in the experiment with SF-539, 1.55 µM (inactive); with HCT-15, 0.344 µM. For the same compound, the GI50 is 0.394 µM (active) with OVCAR-4; 0.908 µM (active) in the experiment on KM12; 1.32 µM (inactive) with RXF 393; 1.52 µM (inactive) in the experiment with SK-OV-3; 0.583 µM (active) in the experiment on COLO 205; 1.34 µM (inactive) in the experiment on MDA-N. Besides, the GI50 is 0.236 µM (active) in the experiment on OVCAR-3 and 1.67 µM (inactive) in the experiment with NCI-H226.
For the compound `O=C1/C(=C\c2cccc(Oc3ccccc3)c2)S(=O)(=O)C(c2ccccc2)N1c1ccc(Cl)cc1` (stereo not given), the GI50 with OVCAR-5 was 11.7 µM (inactive); with HOP-92, 14 µM (inactive); in the experiment on CAKI-1, 13.2 µM (inactive); in the experiment on NCI-H460, 14.2 µM (inactive); in the experiment on Malme-3M, 18.2 µM (inactive); in the experiment on MOLT-4 it was 4.59 µM (inactive). For the same compound, the GI50 was 14 µM (inactive) in the experiment with 786-0; 13.2 µM (inactive) in the experiment with HL-60; 12.3 µM (inactive) in the experiment on CCRF-CEM; 23 µM (inactive) in the experiment with EKVX; 23.7 µM (inactive) in the experiment with SF-539; 13.7 µM with HCT-15. For the same compound, the GI50 in the experiment with OVCAR-4 was 13.1 µM (inactive); with KM12 it was 24 µM (inactive); in the experiment on RXF 393 it was 14.7 µM (inactive); in the experiment on SK-OV-3, 32.2 µM (inactive); with COLO 205, 14.3 µM (inactive); in the experiment on MDA-N it was 14.6 µM (inactive). Further, the figures for the GI50 in the experiment on OVCAR-3 and in the experiment with NCI-H226 were 14.4 µM (inactive) and 43.1 µM (inactive), respectively.
In the case of `CC(=O)OC(CCC1(C)OC1COc1ccc(CCNC(=O)C=C(C)C)cc1)C(C)(C)OC(C)=O` (stereo not given), the GI50 in the experiment with OVCAR-5 is > 100 µM (inactive); in the experiment on HOP-92, > 100 µM (inactive); in the experiment with CAKI-1, > 100 µM (inactive); in the experiment with NCI-H460, 25.6 µM (inactive); in the experiment on Malme-3M, 23.5 µM (inactive); in the experiment on MOLT-4, 8.93 µM (inactive). Moreover, the GI50 with 786-0 was > 100 µM (inactive); with HL-60 it was > 32.1 µM (inactive); in the experiment with CCRF-CEM, > 40.6 µM (inactive); in the experiment with EKVX, 16.9 µM (inactive); in the experiment on SF-539, > 100 µM (inactive); with HCT-15 it was 24.9 µM. For the same compound, the GI50 with OVCAR-4 was 23.7 µM (inactive); in the experiment with KM12, 17.8 µM (inactive); in the experiment with RXF 393, 13.5 µM (inactive); with SK-OV-3 it was > 100 µM (inactive); in the experiment on COLO 205, 28.2 µM (inactive); with MDA-N it was 13.3 µM (inactive). Also, the values for the GI50 in the experiment with OVCAR-3 and in the experiment on NCI-H226 were 16.8 µM (inactive) and > 57 µM (inactive), respectively.
With `CCCCCCCCCCCCCCCCC1=CC(=O)C=C(OC)C1=O`, the GI50 was > 100 µM (inactive) in the experiment with OVCAR-5; 56.8 µM (inactive) with HOP-92; > 100 µM (inactive) in the experiment on CAKI-1; 34.4 µM (inactive) in the experiment with NCI-H460; > 100 µM (inactive) in the experiment with Malme-3M; > 100 µM (inactive) in the experiment with MOLT-4. Besides, the GI50 in the experiment on 786-0 was 47.2 µM (inactive); with HL-60 it was > 100 µM (inactive); in the experiment with CCRF-CEM, 29.4 µM (inactive); in the experiment with EKVX it was > 100 µM (inactive); in the experiment with SF-539, 47.3 µM (inactive); with HCT-15, 66.8 µM. Moreover, the GI50 was > 100 µM (inactive) in the experiment with OVCAR-4; 69.2 µM (inactive) in the experiment on KM12; 37 µM (inactive) in the experiment with RXF 393; > 100 µM (inactive) in the experiment with SK-OV-3; 55.6 µM (inactive) in the experiment on COLO 205; > 100 µM (inactive) in the experiment on MDA-N. Besides, the GI50 with OVCAR-3 and in the experiment with NCI-H226 was > 100 µM (inactive) in each case.
As for `O=C1CSSCC(=O)Nc2ccccc2N1`, the GI50 with OVCAR-5 was > 100 µM (inactive); in the experiment on HOP-92, > 100 µM (inactive); in the experiment on CAKI-1 it was > 100 µM (inactive); in the experiment with NCI-H460 it was > 100 µM (inactive); in the experiment on Malme-3M, > 100 µM (inactive); in the experiment with MOLT-4, 55.6 µM (inactive). Moreover, the GI50 with 786-0 was > 100 µM (inactive); in the experiment with HL-60 it was > 100 µM (inactive); in the experiment with CCRF-CEM, > 100 µM (inactive); in the experiment on EKVX, > 100 µM (inactive); in the experiment with SF-539, > 100 µM (inactive); in the experiment on HCT-15, greater than 100 µM. The GI50 with OVCAR-4, in the experiment on KM12, in the experiment with RXF 393, in the experiment on SK-OV-3, with COLO 205 and in the experiment on MDA-N was > 100 µM (inactive) in each case. Further, the GI50 with OVCAR-3 and with NCI-H226 was > 100 µM (inactive) each time.
